Marks after values point to notes of the source that are not given here.
Assays:
[1] = test system: MCF-7 cancer cell preparations; settings: reported (Kudoh 1996; Bhatnagar 2007), read-out: half maximal inhibitory concentration (IC50); cited from earlier work
[2] = test system: bovine granulosa cells; assay: Inhibition of estradiol production in bovine granulosa cell culture; assay type: cell-based; settings: for concentration of estradiol compared with negative control (no FSH stimulation): letrozole 20 and 2 ng/mL, anastrozole 200 and 20 ng/mL, FSH-stimulated cells
Experimental: Inhibition of estradiol production by two aromatase inhibitors (letrozole and anastrozole) and a benzimidazole (fenbendazole) was tested in vitro using a bovine granulosa cell culture.
The granulosa cell culture protocol has been described previously (Zamberlam, Portela et al., 2011). Briefly, bovine ovaries were obtained at a local abattoir and transported to the lab where granulosa cells of antral follicles were collected by rinsing the follicle wall with Dulbecco's Modified Eagle Medium Nutrient Mixture F-12 (DMEMIF12, Invitrogen Life Technologies, Burlington, ON, Canada). Granullosa cells were maintained in culture for 6 days at 37° C. in 5% CO2, in 700 uL of culture medium (Zamberlam, Portela et al., 2011) which was replaced every 2 days. Cells were maintained in culture from Days 0 to 2, followed by the addition of 1 ng/mL of FSH from Days 2 to 4. On Day 4, depending on the treatment group, the culture medium was supplemented with 1 ng/mL FSH plus the estrogen inhibitor of interest, with FSH alone (positive control) or no FSH (negative control). On Day 6, the culture medium was collected and total protein was measured by the Bradford method (Bio-Rad, Mississauga, ON, Canada). Estradiol levels were determined by radioimmunoassay and expressed as total pg of estradiol per ug of protein.
Three different levels of each compound were tested. The standard concentration used for letrozole was 20 ng/mL. […] The standard dose of fenbendazole was based on a reported maximum concentration 160 ng/mL fenbendazole in plasma after a single oral administration of 7.5 mg/kg of body weight in cattle (Sanyal, 1994). Low and high doses of each aromatase inhibitor were arbitrarily set at standard concentration× 1/10 and standard concentration×10, respectively (Table 1).

[3] = single oral administration of 7.5 mg/kg of body weight in cattle (Sanyal, 1994); cited from earlier work
[4] = test system: ovulation; assay: Induction of ovulation in women; assay type: in vivo, human; settings: women treated at 18 mm follicle diameter
[5] = test system: ovarian function in heifers; assay: Example III: ovarian function and ovulation synchrony after letrozole device plus PGF and GnRH in heifers; assay type: in vivo, cattle; set-up: Degree of synchrony (residuals of the interval from GnRH to ovulation): unit not given here; settings: for Dominant follicle diameter (mm) at day before ovulation: GnRH 24 h later, mean ± SEM; for Ovulation failure / Ovulation in relation to GnRH: Before / Ovulation in relation to GnRH: Synchronized: number of heifers
Excerpt: (§1) Heifers were examined daily by transrectal ultrasonography to determined the interval to ovulation, which served as control data for comparison with the synchronizing effect of subsequent aromatase inhibitor treatment in the same animals. One heifer was excluded for further use due to aggressive behaviour and handling difficulty. At the time of ovulation (Day 0), heifers were assigned randomly to five groups (n=8-10/group) and given an intravaginal device with a wax-based plus gel coat formulation containing 3 g of letrozole (as described in Example 1) for 4 days starting on Day 0, 4, 8, 12, or 16. At the time of device removal, heifers were given 500 μg PGF followed by 100 μg of GnRH 24 h later (FIG. 10).
Ultrasound examinations were performed daily from two days before device insertion to 9 days after post-treatment ovulation. Observations from ultrasound examinations were recorded on a sketch sheet in which each ovary and its structures (CL and follicles a 4 mm in diameter) were represented by size and location. Ovulation was defined as the disappearance of a […] between successive examinations after GnRH treatment, and was confirmed by the subsequent detection of a CL [20]. The time of follicular wave emergence was defined as the day of ovulation, or retrospectively as the day when the dominant follicle was first identified at a diameter of 4 to 5 mm. If the dominant follicle was not identified until it reached 6 or 7 mm, the previous day was considered day of wave emergence. The dominant follicle of a wave was defined as the largest antral follicle of the wave. The day of onset of follicular and luteal regression was defined as the first day of an apparent progressive decrease in follicular and luteal diameters, respectively.
Statistical analyses were done using the Statistical Analysis System software package (SAS Learning Edition 9.1, 2006; SAS Institute Inc., Cary, N.C., USA). Time-series hormone data and follicular diameter profiles were analyzed by analysis of variance for repeated measures using the PROC MIXED procedure to determine the effects of day of treatment (0, 4, 8, 12, and 16), time, and their interactions. Individual time-point comparisons among groups were compared using the least significant difference (LSD) test. Single-point measurements (dominant follicle diameter at device insertion, pre-ovulatory follicle diameter, CL diameter 9 days after the post-treatment ovulation and interval from GnRH treatment to ovulation) were analyzed by one-way analysis of variance. The proportion of heifers that ovulated were compared by Chi-Square test. The degree of synchrony among groups was compared by analysis of variance of the residuals of the interval from GnRH to ovulation. Significance was defined as P≤0.05.

[6] = test system: MCF-7 cancer cell preparations; assay: Reported IC50 in MCF-7 cancer cell preparations; set-up: species or system human; settings: based on the reported IC50 values
[7] = test system: ovulation; assay: Inhibition of ovulation in cattle; assay type: in vivo; settings: treatment during the pre-ovulatory wave in cattle
[8] = test system: plasma estradiol; assay: Example III: plasma estradiol at device removal in heifers; assay type: in vivo, cattle
Excerpt: as §1, with “One heifer was excluded for further use due to aggressive behaviour and handling difficulty.” left out
Blood samples were collected by coccygeal venipuncture into 10 mL heparinized vacuum tubes (Becton Dickinson Vacutainer Systems, Franklin Lakes, N.J., USA). Samples were collected at the time of device removal for estradiol measurement, and at 3, 6 and 9 days following the post-treatment ovulation to determine progesterone concentrations: Additionally, blood samples were collected on Days 4, 8, 12, and 16 from heifers included in Group 16 (Day 0=ovulation) to serve as control data for comparison of estradiol concentrations at the time of device removal in other treatment groups (Groups 0, 4, 8, and 12). […] Blood samples were centrifuged at 1500×g for 20 min and plasma was separated and stored in plastic tubes at −20° C. until assayed.
Plasma concentrations of estradiol were determined using a commercial radioimmunoassay kit (Double Antibody Estradiol; Diagnostic Products, Los Angeles, Calif., USA). The procedure was carried out in the Department of Animal Health and Biomedical Sciences, University of Wisconsin-Madison, as described, with the following modifications: Standards (0.78-100 pg/mL) were prepared in steroid-free (charcoal-treated) bovine plasma. The standards (250 μL in duplicate) and plasma samples (500 μL in duplicate) were extracted with 3 mL of diethyl ether, frozen in a dry-ice/methanol bath, decanted into assay tubes, and dried overnight under a fume hood. The dried samples and standards were re-suspended with 100 μL of assay buffer (0.1% gelatin in PBS).

[9] = letrozole groups combined, letrozole device added to PGF-GnRH protocol

## CC(C)(C#N)c1cc(Cn2cncn2)cc(C(C)(C)C#N)c1 [Anastrozole, anastrozole]
[1]
  IC50: 820 pM
[2]
  dose at which estradiol synthesis was reduced to that of non-FSH-stimulated cells: 200 ng/mL
  concentration of estradiol compared with negative control (no FSH stimulation): did not differ from that of the negative control

## COC(=O)Nc1nc2ccc(Sc3ccccc3)cc2[nH]1 [Fenbendazole, fenbendazole]
[2]; at the levels tested
  reduction of estradiol secretion by FSH-stimulated granulosa cells: did not reduce estradiol secretion significantly
[3]
  maximum concentration in plasma: 160 ng/mL

## N#Cc1ccc(C(c2ccc(C#N)cc2)n2cncn2)cc1 [Letrozole, letrozole]
[1]
  IC50: 70 pM
[2]
  dose at which estradiol synthesis was reduced to that of non-FSH-stimulated cells: 20 ng/mL
  concentration of estradiol compared with negative control (no FSH stimulation): did not differ from that of the negative control
[4]
  ovulation earlier than controls: 24 h
[5]; 3 g letrozole device 4 days from Day 0, PGF at removal
  Dominant follicle diameter (mm) at day before ovulation: 12.8 ± 0.58^a mm
[5]; 3 g letrozole device 4 days from Day 4, PGF at removal
  Dominant follicle diameter (mm) at day before ovulation: 16.4 ± 0.78^b mm
[5]; 3 g letrozole device 4 days from Day 8, PGF at removal
  Dominant follicle diameter (mm) at day before ovulation: 14.5 ± 0.83^ab mm
[5]; 3 g letrozole device 4 days from Day 12, PGF at removal
  Dominant follicle diameter (mm) at day before ovulation: 14.2 ± 0.48^ab mm
[5]; 3 g letrozole device 4 days from Day 16, PGF at removal
  Dominant follicle diameter (mm) at day before ovulation: 11.7 ± 0.59^a mm
[5]; 9 days post-letrozole treatment ovulation
  heifers with CL of normal diameter at last observation (percent): 62.5%
[5]; Letrozole groups combined
  Days from GnRH treatment to ovulation: 1.9 ± 0.08 days
  Degree of synchrony (residuals of the interval from GnRH to ovulation): 0.24 ± 0.07
  Ovulation failure (percent): 6%
  Ovulation in relation to GnRH: Before (percent): 12%
  Ovulation in relation to GnRH: Synchronized (percent): 81%
  Ovulation failure: 3
  Ovulation in relation to GnRH: Before: 6
  Ovulation in relation to GnRH: Synchronized: 39
[5]; by 9 days after ovulation
  heifers that underwent luteolysis prior to the last observation (percent): 37.5%
[5]; by 9 days after ovulation, number of 48 heifers
  heifers that underwent luteolysis prior to the last observation: 18
[5]; [9]
  Proportion that ovulated (heifers/treated): 42/48
  Proportion that ovulated (percent): 87.1%
[5]; treatment initiated on Day 0
  Ovulation failure: 0
  Ovulation in relation to GnRH: Before: 0
  Ovulation in relation to GnRH: Synchronized: 10
[5]; treatment initiated on Day 4
  Ovulation failure: 0
  Ovulation in relation to GnRH: Before: 3
  Ovulation in relation to GnRH: Synchronized: 7
[5]; treatment initiated on Day 8
  Ovulation failure: 1
  Ovulation in relation to GnRH: Before: 0
  Ovulation in relation to GnRH: Synchronized: 7
[5]; treatment initiated on Day 12
  Ovulation failure: 1
  Ovulation in relation to GnRH: Before: 0
  Ovulation in relation to GnRH: Synchronized: 10
[5]; treatment initiated on Day 16
  Ovulation failure: 1
  Ovulation in relation to GnRH: Before: 3
  Ovulation in relation to GnRH: Synchronized: 5
[6]
  potency relative to anastrozole: approximately 11 times
[7]
  delay of ovulation: 24 h
[8]; Group 0 (P=0.02)
  estradiol concentrations at device removal compared to respective controls: lower
[8]; Group 4 (P=0.05)
  estradiol concentrations at device removal compared to respective controls: lower
[8]; Group 8 (P=0.1)
  estradiol concentrations at device removal compared to respective controls: tended to be lower
[8]; Group 12 (P=0.9)
  estradiol concentrations at device removal compared to respective controls: not different from Day 12 controls
[8]; all letrozole-treated groups
  estradiol concentration at device removal (average): 2.1 ± 0.24 pg/mL

Source: patent US10004723B2, “Aromatase inhibitor-releasing intravaginal device” (University of Saskatchewan, priority 2013, dated 2018)
